According to ChEMBL document CHEMBL1152287, “Structure-activity relationships of acetylcholinesterase noncovalent inhibitors based on a polyamine backbone. 4. Further investigation on the inner spacer” (J Med Chem, 2008):

Assays:
Acetylcholinesterase = Acetylcholinesterase (Homo sapiens, UniProt P22303); assay: Inhibition of human recombinant AChE by Ellman's assay
Cholinesterase = Cholinesterase (Homo sapiens, UniProt P06276); assay: Inhibition of human serum BChE by Ellman's assay
[1] = target: T1, Amyloid-beta precursor protein (Homo sapiens, UniProt P05067); assay: Inhibition of self-induced amyloid beta (1-40) aggregation at 10 uM by thioflavin T formation assay
T1 sequence (P05067 whole entry): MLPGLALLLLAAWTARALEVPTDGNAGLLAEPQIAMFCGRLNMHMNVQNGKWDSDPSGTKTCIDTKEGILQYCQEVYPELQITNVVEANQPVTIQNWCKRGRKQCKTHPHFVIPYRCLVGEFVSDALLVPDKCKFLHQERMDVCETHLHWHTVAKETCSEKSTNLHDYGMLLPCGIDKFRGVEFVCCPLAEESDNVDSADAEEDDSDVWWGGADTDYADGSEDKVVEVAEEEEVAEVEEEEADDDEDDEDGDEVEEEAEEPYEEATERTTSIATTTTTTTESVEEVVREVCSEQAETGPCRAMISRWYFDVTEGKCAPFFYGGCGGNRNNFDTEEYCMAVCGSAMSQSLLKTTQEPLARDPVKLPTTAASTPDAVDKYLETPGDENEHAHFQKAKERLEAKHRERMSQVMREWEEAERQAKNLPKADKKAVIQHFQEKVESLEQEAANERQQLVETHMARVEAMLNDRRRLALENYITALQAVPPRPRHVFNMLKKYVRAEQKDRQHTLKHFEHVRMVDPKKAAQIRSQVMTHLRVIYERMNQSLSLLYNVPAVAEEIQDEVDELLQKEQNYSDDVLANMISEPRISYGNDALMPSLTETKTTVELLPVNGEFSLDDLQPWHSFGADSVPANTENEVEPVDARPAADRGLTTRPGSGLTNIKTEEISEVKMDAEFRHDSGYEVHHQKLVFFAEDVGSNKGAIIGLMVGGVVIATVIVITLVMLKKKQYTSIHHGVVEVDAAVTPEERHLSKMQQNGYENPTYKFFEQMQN

[2] = target: T1, Amyloid-beta precursor protein; assay: Inhibition of self-induced amyloid beta (1-40) aggregation by thioflavin T formation assay

Chain of Acetylcholinesterase (P22303 whole entry): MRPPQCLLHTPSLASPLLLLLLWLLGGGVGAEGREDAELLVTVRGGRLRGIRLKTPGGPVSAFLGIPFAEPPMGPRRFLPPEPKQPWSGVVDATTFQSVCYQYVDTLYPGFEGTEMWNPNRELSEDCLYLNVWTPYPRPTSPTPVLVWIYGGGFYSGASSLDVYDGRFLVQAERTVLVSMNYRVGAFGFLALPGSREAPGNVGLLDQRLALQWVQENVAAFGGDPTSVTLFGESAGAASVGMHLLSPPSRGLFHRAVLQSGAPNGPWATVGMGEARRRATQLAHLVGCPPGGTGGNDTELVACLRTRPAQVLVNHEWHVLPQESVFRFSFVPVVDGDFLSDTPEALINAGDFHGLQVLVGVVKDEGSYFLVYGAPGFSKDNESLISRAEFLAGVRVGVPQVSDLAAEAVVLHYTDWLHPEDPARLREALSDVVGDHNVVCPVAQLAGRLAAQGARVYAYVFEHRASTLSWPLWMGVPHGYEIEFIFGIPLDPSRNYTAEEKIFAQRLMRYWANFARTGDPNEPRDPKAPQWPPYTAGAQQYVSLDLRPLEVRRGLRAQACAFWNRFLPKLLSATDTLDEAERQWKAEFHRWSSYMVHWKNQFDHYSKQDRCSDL
Chain of Cholinesterase (P06276 whole entry): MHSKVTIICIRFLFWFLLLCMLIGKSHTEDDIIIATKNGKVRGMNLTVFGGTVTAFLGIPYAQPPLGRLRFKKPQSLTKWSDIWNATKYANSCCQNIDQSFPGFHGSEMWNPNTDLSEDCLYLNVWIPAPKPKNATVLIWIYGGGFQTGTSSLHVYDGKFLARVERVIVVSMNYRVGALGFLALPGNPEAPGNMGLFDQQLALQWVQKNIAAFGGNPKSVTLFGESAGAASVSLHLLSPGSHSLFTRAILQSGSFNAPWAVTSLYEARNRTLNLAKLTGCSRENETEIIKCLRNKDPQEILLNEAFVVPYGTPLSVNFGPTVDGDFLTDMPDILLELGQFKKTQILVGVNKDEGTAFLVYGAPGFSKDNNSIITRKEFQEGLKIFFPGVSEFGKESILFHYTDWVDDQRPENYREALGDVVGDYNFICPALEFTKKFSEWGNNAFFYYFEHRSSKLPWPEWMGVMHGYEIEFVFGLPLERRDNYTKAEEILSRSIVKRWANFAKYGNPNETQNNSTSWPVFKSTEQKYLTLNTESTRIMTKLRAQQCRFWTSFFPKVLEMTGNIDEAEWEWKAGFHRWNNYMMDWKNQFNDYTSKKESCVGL

Compound | IC50 (Acetylcholinesterase) | IC50 (Cholinesterase) | inhibition [1] | IC50 [2]
CCN(CCCCCC(=O)N[C@H]1CCCC[C@@H]1NC(=O)CCCCCN(CC)Cc1ccccc1OC)Cc1ccccc1OC (racemic) | 5470 nM | 36800 nM | – | –
CCN(CCCCCC(=O)N1Cc2ccc3c4c(ccc(c24)C1)CN(C(=O)CCCCCN(CC)Cc1ccccc1OC)C3)Cc1ccccc1OC | 4.83 nM | 1040 nM | 12.7% | –
CCN(CCCCCCN1C(=O)c2ccc3c4c(ccc(c24)C1=O)C(=O)N(CCCCCCN(CC)Cc1ccccc1OC)C3=O)Cc1ccccc1OC | 0.37 nM | 1910 nM | 54.5% | 9690 nM
CCN(CCCCCCN1C(=O)c2cccc3cccc(c23)C1=O)Cc1ccccc1OC | 53.5 nM | 416 nM | < 5% | –
CCN(CCCCCCn1c(=O)c(=O)n(CCCCCCN(CC)Cc2ccccc2OC)c2ccccc21)Cc1ccccc1OC | 1.41 nM | 95.8 nM | 8.8% | –
CCN(CCCCCC(=O)N[C@H]1CC[C@H](NC(=O)CCCCCN(CC)Cc2ccccc2OC)CC1)Cc1ccccc1OC | 8550 nM | 25300 nM | – | –
CCN(CCCCCC(=O)N[C@H]1CCCC[C@H]1NC(=O)CCCCCN(CC)Cc1ccccc1OC)Cc1ccccc1OC | 4160 nM | 30800 nM | – | –
CCN(CCCCCCN1CC(=O)N(CCCCCCN(CC)Cc2ccccc2OC)CC1=O)Cc1ccccc1OC | 15.9 nM | 2090 nM | 4.8% | –
CCN(CCCCCCN1CCN(CCCCCCN(CC)Cc2ccccc2OC)C1=O)Cc1ccccc1OC | 72.4 nM | 876 nM | < 5% | –
COc1ccccc1CN(C)CCCCCC(=O)N(C)CCCCCCCCN(C)C(=O)CCCCCN(C)Cc1ccccc1OC | – | – | 20.3% | –
CCN(CCCCCC(=O)N1CCN(C(=O)CCCCCN(CC)Cc2ccccc2OC)CC1)Cc1ccccc1OC | 25.7 nM | 10700 nM | < 5% | –
CCN(CCCCCCN1CCN(CCCCCCN(CC)Cc2ccccc2OC)C(=O)C1=O)Cc1ccccc1OC | 68.9 nM | 10300 nM | – | –
CCN(CCCCCCn1c(=O)c2cc3c(=O)n(CCCCCCN(CC)Cc4ccccc4OC)c(=O)c3cc2c1=O)Cc1ccccc1OC | 7.7 nM | 3000 nM | < 5% | –
CCN(CCCCCC(=O)N1CCC(C2CCN(C(=O)CCCCCN(CC)Cc3ccccc3OC)CC2)CC1)Cc1ccccc1OC | – | – | 13.7% | –
CCN(CCCCCCN1C(=O)c2ccc(-c3ccc4c(c3)C(=O)N(CCCCCCN(CC)Cc3ccccc3OC)C4=O)cc2C1=O)Cc1ccccc1OC | 14 nM | 293 nM | 16.5% | –
